From ChEMBL document CHEMBL5303304, “EUbOPEN Chemogenomics Library - IncuCyte” (2023)

What was measured:
Type in all cases: toxicity, cell-based
HEK-293T = experiment: Incucyte cell viability with HEK293T; conditions: human, 10 µM, compound concentration 10 uM
Fibroblast = experiment: Incucyte cell viability with human fibroblast; conditions: 10 µM, compound concentration 10 uM
U2OS = experiment: Incucyte cell viability with U2OS; conditions: human, 10 µM, compound concentration 10 uM
Note: unitless GR value; below 1 slowed growth and below 0 cell loss.

Row | Compound | Growth Rate (HEK-293T; 0 h, replicate number 1) | Growth Rate (HEK-293T; 0 h, replicate number 2) | Growth Rate (HEK-293T; 24 h, replicate number 1) | Growth Rate (Fibroblast; 0 h, replicate number 1) | Growth Rate (Fibroblast; 6 h, replicate number 2) | Growth Rate (Fibroblast; 12 h, replicate number 2) | Growth Rate (Fibroblast; 18 h, replicate number 1) | Growth Rate (Fibroblast; 18 h, replicate number 2) | Growth Rate (Fibroblast; 24 h, replicate number 2) | Growth Rate (U2OS; 6 h, replicate number 1) | Growth Rate (U2OS; 12 h, replicate number 1) | Growth Rate (U2OS; 12 h, replicate number 2) | Growth Rate (U2OS; 18 h, replicate number 1) | Growth Rate (U2OS; 24 h, replicate number 1) | Growth Rate (U2OS; 24 h, replicate number 2) | Growth Rate (Fibroblast; 12 h, replicate number 1) | Growth Rate (Fibroblast; 24 h, replicate number 1) | Growth Rate (U2OS; 0 h, replicate number 1) | Growth Rate (U2OS; 6 h, replicate number 2) | Growth Rate (U2OS; 18 h, replicate number 2) | further results
1 | NC1(c2ccc(-c3nc4c(O)ccnn4c3-c3ccccc3)cc2)CCC1 | -0.07 | -0.33 | 0.95 | -1 | 0.35 | 0.9 | 0.95 | 0.83 | 0.93 | 0.34 | 0.63 | 0.83 | 0.66 | 0.89 | 0.93 | – | – | – | – | – | Growth Rate (Fibroblast; 0 h, replicate number 2): -0.33; Growth Rate (U2OS; 0 h, replicate number 2): -0.99
2 | CN(C(=O)c1cnn2cccnc12)c1cc2c(cc1N1CCOCC1)C(=O)N(C[C@@H](F)C(C)(C)O)C2 | 0.82 | 0.66 | – | – | 0.95 | 0.89 | 0.7 | – | – | 0.54 | 0.98 | -0.78 | 0.75 | – | 0.85 | 0.84 | 0.82 | 0.99 | 0.75 | 0.92 | Growth Rate (HEK-293T; 6 h, replicate number 2): 0.77; Growth Rate (HEK-293T; 12 h, replicate number 2): 0.85; Growth Rate (HEK-293T; 18 h, replicate number 2): 1; Growth Rate (HEK-293T; 24 h, replicate number 2): 0.92; Growth Rate (Fibroblast; 0 h, replicate number 2): 0.71; Growth Rate (Fibroblast; 6 h, replicate number 1): 0.38
3 | COc1ccccc1Nc1nc(-c2nn(Cc3c(F)cc(OCCCO)cc3F)c3ccccc23)ncc1OC | 0.17 | – | – | – | 0.53 | 0.41 | 0.85 | 0.58 | 0.85 | – | – | 0.93 | – | – | 0.96 | 0.59 | 0.77 | – | 0.89 | 1 | Growth Rate (Fibroblast; 0 h, replicate number 2): -0.85; Growth Rate (Fibroblast; 6 h, replicate number 1): 0.3
4 | COc1cnccc1Nc1nc(-c2nn(Cc3c(F)cc(OCCO)cc3F)c3ccccc23)ncc1OC | -1 | -0.96 | – | – | 0.31 | 0.04 | -0.14 | -0.07 | -0.03 | -0.05 | -0.2 | 0.06 | -0.22 | -0.17 | 0.09 | -0.23 | -0.14 | -1 | -0.04 | 0.21 | Growth Rate (HEK-293T; 6 h, replicate number 2): -0.05; Growth Rate (HEK-293T; 12 h, replicate number 2): -0.01; Growth Rate (HEK-293T; 18 h, replicate number 2): 0.13; Growth Rate (HEK-293T; 24 h, replicate number 2): 0.21; Growth Rate (Fibroblast; 6 h, replicate number 1): -0.29; Growth Rate (U2OS; 0 h, replicate number 2): -0.09
5 | CN(C)CC#Cc1ccc2[nH]c3c(c2c1)-c1nc(N)ncc1CCC3 | -0.2 | 0.54 | 0.12 | -1 | – | 0.69 | 0.27 | 0.42 | 0.33 | – | 0.96 | 0.59 | 0.86 | 0.86 | 0.36 | 0.45 | 0.2 | -0.89 | 0.82 | 0.45 | Growth Rate (HEK-293T; 6 h, replicate number 1): -0.19; Growth Rate (HEK-293T; 6 h, replicate number 2): -0.58; Growth Rate (HEK-293T; 12 h, replicate number 1): -0.03; Growth Rate (HEK-293T; 12 h, replicate number 2): -0.38; Growth Rate (HEK-293T; 18 h, replicate number 1): 0.11; Growth Rate (HEK-293T; 18 h, replicate number 2): -0.23; Growth Rate (HEK-293T; 24 h, replicate number 2): -0.05; Growth Rate (Fibroblast; 6 h, replicate number 1): 0.76
6 | CCOc1ccc(S(=O)(=O)Nc2ccc(Cl)cc2C#Cc2cnc(C(=O)[O-])cc2OC)c2ncccc12.[K+] | 0.28 | -0.2 | 0.98 | -0.78 | 0.49 | 0.49 | 1 | 0.43 | 0.53 | – | 0.95 | -0.91 | 0.94 | – | 0.81 | – | 0.99 | -0.87 | 0.58 | -0.85 | Growth Rate (HEK-293T; 6 h, replicate number 2): 0.66; Growth Rate (HEK-293T; 12 h, replicate number 2): 0.97; Growth Rate (HEK-293T; 18 h, replicate number 2): 0.87; Growth Rate (HEK-293T; 24 h, replicate number 2): 0.87; Growth Rate (U2OS; 0 h, replicate number 2): 0.5
7 | CCCS(=O)(=O)Nc1ccc(F)c(Nc2ncnc3cnc(-n4cnc(C)c4)nc23)c1F | -0.79 | – | 0.71 | -0.99 | 0.4 | 0.62 | 0.53 | 0.69 | 0.77 | 0.75 | 0.7 | 0.63 | 0.78 | 0.97 | 0.67 | 0.52 | 0.53 | – | 0.61 | 0.84 | Growth Rate (HEK-293T; 6 h, replicate number 2): 0.5; Growth Rate (HEK-293T; 12 h, replicate number 1): 0.77; Growth Rate (HEK-293T; 12 h, replicate number 2): 0.72; Growth Rate (HEK-293T; 18 h, replicate number 1): 0.75; Growth Rate (HEK-293T; 18 h, replicate number 2): 0.73; Growth Rate (HEK-293T; 24 h, replicate number 2): 0.8; Growth Rate (Fibroblast; 6 h, replicate number 1): 0.75
8 | CN1CC(=O)N(C)c2cnc(Nc3ccc(NC(=O)Nc4cccc(C(=O)O)c4)cc3)nc21 | -1 | – | 0.72 | -1 | – | 0.81 | – | 0.99 | – | 0.82 | 0.91 | 0.75 | 0.89 | 0.95 | 1 | – | – | -0.94 | 0.73 | 0.97 | Growth Rate (HEK-293T; 18 h, replicate number 1): 0.83; Growth Rate (Fibroblast; 0 h, replicate number 2): -0.25; Growth Rate (U2OS; 0 h, replicate number 2): 0.52
9 | C[S+]([O-])c1ccc(-c2nc(-c3cccc(I)c3)c(-c3ccncc3)[nH]2)cc1 (stereo not given) | -0.57 | -1 | 0.99 | – | 0.66 | – | – | – | – | – | – | 0.8 | 0.97 | 1 | 0.65 | – | – | -0.99 | 0.79 | 0.75 | Growth Rate (HEK-293T; 12 h, replicate number 1): 0.87; Growth Rate (HEK-293T; 18 h, replicate number 1): 0.99
10 | CN(C)c1ccc(-c2cc3ncccc3c(OCCCCO)n2)cc1.O=C(O)C(F)(F)F | -0.94 | -0.26 | – | – | 0.29 | 0.37 | – | 0.6 | 0.65 | – | 0.85 | 0.55 | 0.66 | 0.91 | 0.64 | – | – | -1 | -0.83 | 0.67 | Growth Rate (HEK-293T; 24 h, replicate number 2): 0.87; Growth Rate (Fibroblast; 0 h, replicate number 2): -0.45
11 | Cc1ncc(C(=O)Nc2cc(C(C)(C)C)on2)cc1-n1cc(-c2cnn(C)c2C)nn1.Cl | -0.6 | – | – | 0.92 | 0.14 | 0.79 | – | – | 0.95 | 0.8 | – | – | – | – | 0.58 | 0.95 | – | – | 0.94 | 0.92 | Growth Rate (HEK-293T; 6 h, replicate number 1): 0.99; Growth Rate (HEK-293T; 6 h, replicate number 2): 0.65; Growth Rate (Fibroblast; 0 h, replicate number 2): 0.23; Growth Rate (Fibroblast; 6 h, replicate number 1): 0.69
12 | COc1cc(C(N)=O)ccc1Nc1ncc2c(n1)N(CCC(C)C)[C@H](C)C(=O)N2C | -0.98 | -1 | 0.53 | -0.99 | – | – | – | – | 0.77 | – | -0.71 | 0.18 | 0.37 | -0.55 | 0.27 | – | – | -1 | 0.39 | 0.4 | Growth Rate (Fibroblast; 0 h, replicate number 2): -0.68
13 | O=C1CCCN1CCNc1nc(Nc2ccc(Cl)c(Cl)c2)ncc1C(F)(F)F | -0.87 | -1 | 0.78 | – | 0.95 | 0.41 | 0.65 | 0.48 | 0.45 | 0.32 | 0.24 | -0.25 | 0.25 | 0.37 | – | 0.62 | 0.64 | -1 | – | – | Growth Rate (HEK-293T; 18 h, replicate number 1): 0.89
14 | Cc1ccc(-n2nc(C(C)(C)C)cc2NC(=O)Nc2ccccc2F)cc1 | -0.4 | – | – | – | 0.02 | 0.82 | 0.86 | – | – | 0.9 | 0.91 | 0.72 | 0.79 | 0.72 | 0.85 | 0.68 | 0.91 | – | 0.67 | – | Growth Rate (Fibroblast; 6 h, replicate number 1): -0.08; Growth Rate (U2OS; 0 h, replicate number 2): -0.52
